What was measured:
[1] = system: rheumatoid synovial fibroblasts (RSF); details: concentrations of 10–150 μM; IL-1 or IL-8 stimulated; cited from earlier work
[2] = system: PKC; details: read-out: IC50 PKC inhibitory activity; cited from earlier work
[3] = system: experimental OA; details: sustained systemic delivery; cited from earlier work
[4] = system: NFκB activation; details: IL-1-stimulated RSF; cited from earlier work
[5] = system: adjuvant-induced arthritis; details: p.o. at 30 and 60 mg/kg/day; cited from earlier work
[6] = system: paw inflammation; details: dose of 50 mg/kg; cited from earlier work
[7] = system: prostaglandin E2 production in synovial cultures; experiment: PGE2 formation in cultured human synovial fibroblasts during overnight IL-1 priming; assay type: cell-based; details: Fibroblast, co-incubation with IL-1 (10 U/ml), 16 hr, mean±SEM
Description: (§1) 1. Cell Culture. […] Experiments were performed on cells from passages 3–8. […] The growth medium was replaced twice weekly.
2. Experimental Treatments.
3. Measurement of Prostaglandin E2. […] Samples were stored at −80° until processing.
1. Data analysis. Immunoassays were routinely performed in duplicate aliquots from each culture. Experimental determinations were performed on duplicate or triplicate cultures. Each experiment was repeated in at least two cell lines. Nonlinear regression curve fitting and statistical analyses were performed using Graph-PAD Prism software (San Diego, Calif.).
The actions of ketoprofen, a cyclooxygenase inhibitor, to attenuate PGE2 formation were determined by co-incubation with IL-1 during prolonged exposure (16 hr); and by brief pre-incubation prior to a subsequent GPCR agonist challenge interval, as shown in FIG. 8.

[8] = system: prostaglandin E2 production in synovial cultures; details: histamine 100 μM or bradykinin 1 μM; overnight IL-1 (10 U/ml) priming
Description: Cell Culture. Synovial tissue was obtained from osteoarthritis patients undergoing joint replacement surgery through the Clinical Research Center, MacNeal Hospital, and transported to the laboratory in Dulbecco's Modified Eagle's Medium (DMEM) containing penicillin (100 units/ml), streptomycin (100 μg/ml), and fungizone (0.25 μg/ml). The synovium was dissected and minced with scissors, and plated as explants in culture medium composed of DMEM containing L-glutamine (2 mM), heat inactivated fetal bovine serum (10% v/v), plus antibiotics. Cultures were housed at 37° C. in a humidified atmosphere of 5% CO2. Adherent synovial cells grew out of the explants within 2–3 weeks, and were passaged by trypsinization. Seed cultures were fed twice weekly and were passaged at confluency. Experiments were performed on cells from passages 3–8. Experimental cultures were plated into 35 mm dishes at a density of 7.5×10^3 cells/cm^2 in 2 ml culture medium. […]
Measurement of Prostaglandin E2. […] Aliquots of culture supernatant were analyzed by competitive binding radioimmunoassay as specified by the manufacturer (Sigma Chemical Co.), using an antibody with equivalent reactivity toward prostaglandins E2 and E1. For quantitation, a standard curve was prepared with each assay using fixed concentrations of [^3H]prostaglandin E2, and increasing concentrations of authentic competing prostaglandin E2.

[9] = system: IL-6 production by synovial cultures; experiment: IL-6 production by synovial cultures stimulated with IL-1 plus GPCR ligands; assay type: cell-based, human; details: 0.75 μM ketoprofen
Description: FIG. 9 is a graphical representation of the effect of ketoprofen on IL-6 production by synovial cultures at 16 hours in the presence of the indicated concentrations of IL-1 plus the added G-protein coupled receptor ligands. Cultures were incubated for 16 hours with IL-1 at the indicated concentration (0.3, 1.0 and 3.0 pg/ml) in the absence and presence of 0.75 μM ketoprofen in experimental growth medium with one of the following additional receptor ligands: 1) isoproterenol (ISO) at 1.0 μM to activate the camp pathway, or 2) histamine (HIS) at 100 μM to activate the IP3/calcium pathway. Culture supernatants were collected and replaced with fresh media aliquots containing the same agonist additions at 8 hour intervals. Following treatment, the supernatant medium corresponding to the treatment interval from 8 to 16 hours was collected and analyzed for IL-6.
as §1
4. Measurement of IL-6. Production of the cytokine, IL-6, was also measured in aliquots of supernatant culture media which had been stored frozen at −80° C. IL-6 was measured by sandwich ELISA with alkaline phosphatase detection as described by the manufacturer (Pharmingen) and quantitated using standard curves prepared with the respective pure recombinant human cytokines. […]

[10] = system: IL-8 production by synoviocyte cultures; experiment: IL-8 production by synoviocyte cultures in response to IL-1; assay type: cell-based, human
Description: as §1
The kinetics of induction of interleukin-6 in response to stimulation with IL-1 are described. Synoviocyte cultures were exposed to the indicated treatments with IL-1 plus either histamine to activate signaling through inositol trisphosphate (InsP3)/protein kinase C pathway or isproterenol to activate increases in intracellular cAMP. Production of PGE2, IL-6, and IL-8 were measured in the culture supernatants following 1, 2, 4, 6, and 24 hr treatments. In this experiment, each treatment interval was performed in a separate culture. […] IL-1 also produced a significant elevation of IL-8 (2000 pg/ml), which was first measurable at 6 hr of treatment.
The effect of ketoprofen on the induction of cytokine production by IL-1 and GPCR agonists was examined. The protocol also tested the effects of IL-1 concentration dependence on the IL-6 steady state induction. Synoviocyte cultures were exposed to indicated concentrations of IL-1 and GPCR agonists. Culture supernatants were collected and replaced with fresh media aliquots containing the same agonist additions at 8-hr intervals. PGE2, IL-6, and IL-8 in the supernatants were assayed as described.

[11] = in vivo, cited from earlier work
[12] = molecular target: T1, Type I IL-1R (Homo sapiens, UniProt P14778); details: in vitro efficacy; cited from earlier work
T1 sequence (P14778 18-569): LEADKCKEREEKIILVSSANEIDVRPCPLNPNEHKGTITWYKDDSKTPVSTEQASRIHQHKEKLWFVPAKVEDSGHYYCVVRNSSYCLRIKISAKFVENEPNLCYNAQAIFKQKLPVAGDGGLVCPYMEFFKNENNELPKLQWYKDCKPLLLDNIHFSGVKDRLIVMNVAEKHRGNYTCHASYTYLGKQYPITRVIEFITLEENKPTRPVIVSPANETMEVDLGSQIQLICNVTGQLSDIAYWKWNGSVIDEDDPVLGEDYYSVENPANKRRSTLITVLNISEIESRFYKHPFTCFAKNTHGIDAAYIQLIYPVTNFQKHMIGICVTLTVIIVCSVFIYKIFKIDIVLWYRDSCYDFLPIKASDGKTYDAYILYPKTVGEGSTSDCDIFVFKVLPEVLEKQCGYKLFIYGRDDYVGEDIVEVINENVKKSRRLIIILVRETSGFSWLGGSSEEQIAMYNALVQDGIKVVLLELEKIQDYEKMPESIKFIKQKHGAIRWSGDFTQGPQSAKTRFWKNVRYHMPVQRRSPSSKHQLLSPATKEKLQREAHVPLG

[13] = molecular target: BMP-4 receptors; details: 125I-BMP-4; read-out: apparent dissociation constant; cited from earlier work
[14] = molecular target: T1, Type I IL-1R; details: cells that express the Type I IL-1R; cited from earlier work

With `c1cnc2c(c1)ccc1cccnc12` [1,10-o-phenanthroline] as the compound, how does the “effect on penetration of cartilage by RSF cells” value [1] read?
The value was “substantially inhibited”.

For `Cn1c2ccccc2c2c3c(c4c5ccccc5n(CCC#N)c4c21)CNC3=O` [G-6203], which IC50 [2] is on record?
Its IC50 is 2000 to 10000 nM.

For `CC(=N)NCCCC[C@H](N)C(=O)O` [L-NIL], which “effect on progression of experimental OA” value [3] is on record?
Its value is “reduces the progression of experimental OA”.

Which “activity on PGE2 production” value [4] does the source give for `CN(C)C[C@H]1CCn2c(c(C3=C(c4cn(C)c5ccccc45)C(=O)NC3=O)c3ccccc32)C1` [RO 32-0432] here?
Its value is “inactive”.

With `C[S+]([O-])c1ccc(-c2nc(-c3ccc(F)cc3)c(-c3ccncc3)[nH]2)cc1` (stereo not shown) [SB203580, 4-(4-fluorophenyl)-2-(4-methylsulfinylphenyl)-5-(4-pyridyl)imidazole] as the compound, how does the antiarthritic activity [5] read?
Its antiarthritic activity is “Antiarthritic activity”.

What about the “effect on paw inflammation” value [6] of the same compound?
Its value is “significant inhibition of paw inflammation”.

With `O=C1CCNC(=O)c2[nH]ccc21` [aldisine] as the compound, how does the “activity on PGE2 production” value [4] read?
Its value is “inactive”.

Which IC50 [7] does the source give for `CCc1cccc2c3c([nH]c12)C(CC)(CC(=O)O)OCC3` (stereo not shown) [etodolac] here?
Its IC50 is 15.2 ± 4.6 nM.

For `NCCc1c[nH]cn1` [histamine], which “fold increase in PGE2 production compared to IL-1 primed cells receiving no GPCR agonist” value [8] is on record?
Its value is 5–10 fold.

Which IC50 [7] does the source give for `COc1ccc2c(c1)c(CC(=O)O)c(C)n2C(=O)c1ccc(Cl)cc1` [indomethacin] here?
The IC50 was 3.2 ± 1.5 nM.

For `CC(C(=O)O)c1cccc(C(=O)c2ccccc2)c1` (stereo not shown) [ketoprofen], which “effect on IL-6 production in histamine or isoproterenol/IL-1 co-stimulated samples” value ([9]; histamine 100 μM or isoproterenol 1.0 μM plus IL-1) is on record?
Its value is “inhibited”.

What about the inhibition at 0.75 µM ([9]; Homo sapiens, 1.0 pg/ml IL-1, 16 hr, read-out: inhibition of IL-1-elicited IL-6 production) of the same compound?
Its inhibition at 0.75 µM is ≤ 50%.

And the IC50 [7]?
The IC50 was 4.5 ± 0.8 nM.

What about the “effect on IL-8 production in response to IL-1” value [10] of the same compound?
The value was “reduces”.

With `O=C(c1ccccc1)c1ccc2n1CCC2C(=O)O` (stereo not shown) [ketorolac] as the compound, how does the IC50 [7] read?
The IC50 was 2.2 ± 0.4 nM.

For `CC(C)C[C@H](NP(=O)(O)O[C@@H]1O[C@@H](C)[C@H](O)[C@@H](O)[C@H]1O)C(=O)N[C@@H](Cc1c[nH]c2ccccc12)C(=O)O` [phosphoramidon], which “effect on penetration of cartilage by RSF cells” value [1] is on record?
Its value is “substantially inhibited”.

With Ac-FEWTPGWYQJY-NH2 [AF11567] as the compound, how does the plasma half-life [11] read?
Its plasma half-life is 2.3 to 2.6 h.

With Ac-FEWTPGWYQJYALPL-NH2 [AF12198] as the compound, how does the metabolism ([11]; iv) read?
Its metabolism is “rapid metabolism”.

What about the IC50 [12] of the same compound?
Its IC50 is 0.5 to 2 nM.

With “BMP-4: bone morphogenetic protein, member of the TGF-β superfamily” as the compound, how does the Kd [13] read?
Its Kd is 0.11 nM.

Which “molar excess required to inhibit IL-1 biological responses” value [14] does the source give for “IL-1Ra: naturally occurring secreted, soluble ligand that binds to IL-1 receptors; 22 kD protein” here?
The value was 10–100 fold.

Which IC50 [2] does the source give for calphostin C here?
Its IC50 is 50000 nM.
